Results published in ChEMBL document CHEMBL1156286, “Inhibition of eEF2-K by thieno[2,3-b]pyridine analogues” (Bioorg Med Chem Lett, 2010).
pEC50, pIC50: −log10 of the molar value.

Legend:
A549 = assay: Cytotoxicity against human A549 cells after 72 hrs; type: functional, cell-based; conditions: A549, 72 h
[1] = molecular target: T1, Eukaryotic elongation factor 2 kinase (Homo sapiens, UniProt O00418); assay: Inhibition of GST tagged eEf2K expressed in Escherichia coli by fluorometric method
T1 sequence (O00418 whole entry): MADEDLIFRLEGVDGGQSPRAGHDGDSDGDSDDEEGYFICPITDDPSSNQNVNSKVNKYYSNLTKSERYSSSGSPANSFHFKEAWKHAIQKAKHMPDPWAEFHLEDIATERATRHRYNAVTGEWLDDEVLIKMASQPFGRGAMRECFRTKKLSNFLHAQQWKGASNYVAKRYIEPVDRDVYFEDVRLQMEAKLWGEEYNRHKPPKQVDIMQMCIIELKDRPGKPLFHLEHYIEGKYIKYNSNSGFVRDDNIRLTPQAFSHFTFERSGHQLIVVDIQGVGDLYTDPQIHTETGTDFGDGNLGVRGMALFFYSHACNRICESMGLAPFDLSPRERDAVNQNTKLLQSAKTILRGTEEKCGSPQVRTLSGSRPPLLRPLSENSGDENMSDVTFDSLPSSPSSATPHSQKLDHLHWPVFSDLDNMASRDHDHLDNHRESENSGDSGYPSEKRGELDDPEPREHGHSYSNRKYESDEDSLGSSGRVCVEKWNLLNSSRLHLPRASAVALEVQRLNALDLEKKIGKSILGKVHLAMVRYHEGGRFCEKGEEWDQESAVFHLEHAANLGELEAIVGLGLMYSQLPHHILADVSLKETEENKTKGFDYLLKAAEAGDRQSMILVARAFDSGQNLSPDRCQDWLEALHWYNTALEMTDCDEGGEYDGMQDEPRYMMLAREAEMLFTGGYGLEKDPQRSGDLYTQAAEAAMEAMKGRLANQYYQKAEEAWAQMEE

HCT-116 = assay: Cytotoxicity against human HCT116 cells after 72 hrs; type: functional, cell-based; conditions: HCT-116, 72 h

Compound | pEC50 (A549) | pIC50 [1] | pEC50 (HCT-116)
NC(=O)c1sc2nc3c(cc2c1N)CCCCCC3 | 4.42 | 5.60 | 4.42
CC(C)Cc1c2c(nc3sc(C(N)=O)c(N)c13)CCCCCC2 | – | 6.07 | –
NC(=O)c1sc2nc3c(c(C4CC4)c2c1N)CCCCCC3 | – | 5.70 | –
NC(=O)c1sc2nc3c(c(-c4ccc(C(F)(F)F)o4)c2c1N)CCCCCC3 | – | 6.52 | –
NC(=O)c1sc2nc(CC3CCCCC3)cc(-c3ccco3)c2c1N | – | < 5.00 | –
NC(=O)c1sc2nc3c(c(-c4ccoc4)c2c1N)CCCCCC3 | – | 5.96 | –
COC(=O)c1oc(-c2c3c(nc4sc(C(N)=O)c(N)c24)CCCCCC3)cc1C | – | < 4.70 | –
Nc1ncnc2c1sc1nc3c(c(-c4ccco4)c12)CCCCC3 | 4.77 | 5.33 | < 4.00
COc1ccc(-c2cc(-c3ccco3)c3c(N)c(C(N)=O)sc3n2)c(OC)c1 | – | < 5.00 | –
NC(=O)c1sc2nc3c(c(-c4ccccc4)c2c1N)CCCCCC3 | – | < 4.70 | –
NC(=O)c1sc2nc3c(c(-c4nccs4)c2c1N)CCCCCC3 | – | 5.85 | –
Cc1cccnc1-c1c2c(nc3sc(C(N)=O)c(N)c13)CCCCCC2 | – | < 4.70 | –
NC(=O)c1sc2nc3c(c(CCc4ccccc4)c2c1N)CCCCCC3 | – | < 4.70 | –
COc1ccc(F)c(-c2c3c(nc4sc(C(N)=O)c(N)c24)CCCCCC3)c1 | – | 5.89 | –
NC(=O)c1sc2nc3c(c(-c4cc5ccccc5o4)c2c1N)CCCCCC3 | – | 6.48 | –
CCc1ccc(-c2c3c(nc4sc(C(N)=O)c(N)c24)CCCCCC3)o1 | – | 6.18 | –
Nc1ncnc2c1sc1nc(N3CCOCC3)c3c(c12)CCCC3 | 5.17 | 6.66 | 4.54
Nc1ncnc2c1sc1nc3c(cc12)CCCCCCC3 | – | 5.43 | –

Compound | pEC50 (A549) | pIC50 [1] | pEC50 (HCT-116)
Nc1ncnc2c1sc1nc3c(c(-c4ccco4)c12)CCCCCCC3 | – | 6.46 | –
NC(=O)c1sc2nc3c(c(-c4ccc(CO)o4)c2c1N)CCCCCC3 | – | 6.10 | –
Cc1cc(-c2c3c(nc4sc(C(N)=O)c(N)c24)CCCCCC3)oc1C | – | 5.96 | –
Cc1c2c(nc3sc(C(N)=O)c(N)c13)CCCCCC2 | – | 5.96 | –
NC(=O)c1sc2nc3c(c(/C=C/c4ccco4)c2c1N)CCCCCC3 | 4.82 | 6.49 | 4.72
Cc1ccsc1-c1c2c(nc3sc(C(N)=O)c(N)c13)CCCCCC2 | – | 6.34 | –
Cc1cccc(-c2c3c(nc4sc(C(N)=O)c(N)c24)CCCCCC3)c1 | – | 5.92 | –
Cn1cccc1-c1c2c(nc3sc(C(N)=O)c(N)c13)CCCCCC2 | – | 6.00 | –
COc1ccc(Cc2cc(-c3ccco3)c3c(N)c(C(N)=O)sc3n2)c(OC)c1 | – | < 5.00 | –
NC(=O)c1sc2nc3c(c(-c4ccco4)c2c1N)CCCCCCC3 | – | – | 4.77
NC(=O)c1sc2nc3c(c(-c4ccc(Cl)c(Cl)c4)c2c1N)CCCCCC3 | – | 6.00 | –
NC(=O)c1sc2nc3c(c(-c4ccco4)c2c1N)CCCCCCCC3 | – | < 4.70 | –
NC(=O)c1sc2nc3c(c(-c4ccc(Cl)cc4)c2c1N)CCCCCC3 | – | 5.96 | –
NC(=O)c1sc2nc3c(c(-c4ccco4)c2c1N)CCCCC3 | – | 5.96 | –
NC(=O)c1sc2nc3c(c(-c4ccc(Cl)o4)c2c1N)CCCCCC3 | 4.19 | 6.55 | 4.00
NC(=O)c1sc2nc3c(c(-c4ccco4)c2c1N)CCCCCC3 | – | 6.19 | –
CC1CCCc2c1nc1sc(C(N)=O)c(N)c1c2-c1ccco1 (racemic) | – | < 4.70 | –
CC(C)=CCCC(C)c1c2c(nc3sc(C(N)=O)c(N)c13)CCCCCC2 (racemic) | – | 5.00 | –
